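1) Cells in 96-well plates. 2) Compound, 48 h, 5 concentrations. 3) Linear interpolation between surrounding doses. 4) Unreached endpoint = highest concentration. At the GI50, growth is halved. At the TGI there is no net growth.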
How the values were obtained:
Test in all cases: NCI anticancer screen, dose series, 48 h
[1] = test system: 786-0 renal
[2] = test system: A498 renal
[3] = test system: A549 NSCLC
[4] = test system: ACHN renal
[5] = test system: BT-549 breast
[6] = test system: CAKI-1 renal
[7] = test system: CCRF-CEM leukemia
[8] = test system: COLO 205 colon
[9] = test system: DU-145 prostate
[10] = test system: EKVX NSCLC
[11] = test system: HCC-2998 colon
[12] = test system: HCT-116 colon
[13] = test system: HCT-15 colon
[14] = test system: HL-60(TB) leukemia
[15] = test system: HOP-62 NSCLC
[16] = test system: HOP-92 NSCLC
[17] = test system: HS 578T breast
[18] = test system: HT29 colon
[19] = test system: IGROV1 ovarian
[20] = test system: K-562 leukemia
[21] = test system: KM12 colon
[22] = test system: LOX IMVI melanoma
[23] = test system: M14 melanoma
[24] = test system: MALME-3M melanoma
[25] = test system: MCF7 breast
[26] = test system: MDA-MB-231 breast
[27] = test system: MDA-MB-435
[28] = test system: MOLT-4 leukemia
[29] = test system: NCI-H226 lung
[30] = test system: NCI-H23 lung
[31] = test system: NCI-H460 lung
[32] = test system: NCI-H522 lung
[33] = test system: NCI/ADR-RES ovarian
[34] = test system: OVCAR-3 ovarian
[35] = test system: OVCAR-4 ovarian
[36] = test system: OVCAR-8 ovarian
[37] = test system: PC-3 prostate
[38] = test system: RPMI-8226 leukemia
[39] = test system: RXF 393 renal
[40] = test system: SF-268 CNS
[41] = test system: SF-295 CNS
[42] = test system: SF-539 CNS
[43] = test system: SK-MEL-2 melanoma
[44] = test system: SK-MEL-28 melanoma
[45] = test system: SK-MEL-5 melanoma
[46] = test system: SK-OV-3 ovarian
[47] = test system: SN12C renal
[48] = test system: SNB-19 CNS
[49] = test system: SNB-75 CNS
[50] = test system: SR leukemia
[51] = test system: SW-620 colon
[52] = test system: T-47D breast
[53] = test system: TK-10 renal
[54] = test system: U251 CNS
[55] = test system: UACC-257 melanoma
[56] = test system: UACC-62 melanoma
[57] = test system: UO-31 renal

CC(C)=CCc1c(O)c(C(=O)CC(C)C)c(O)c2c(-c3ccccc3)cc(=O)oc12
GI50 [1]: 10.7 µM
TGI [1]: > 50 µM
GI50 [2]: 7.4 µM
TGI [2]: 28.8 µM
GI50 [3]: 12 µM
TGI [3]: > 50 µM
GI50 [4]: 5.85 µM
TGI [4]: > 50 µM
GI50 [5]: 7.31 µM
TGI [5]: > 50 µM
GI50 [6]: 11 µM
TGI [6]: 48.3 µM
GI50 [7]: 5.11 µM
TGI [7]: > 50 µM
GI50 [8]: 9.75 µM
TGI [8]: 19 µM
GI50 [9]: 15.5 µM
TGI [9]: > 50 µM
GI50 [10]: 11.5 µM
TGI [10]: > 50 µM
GI50 [11]: 11.7 µM
TGI [11]: > 50 µM
GI50 [12]: 7.27 µM
TGI [12]: 43.3 µM
GI50 [13]: 7.11 µM
TGI [13]: > 50 µM
GI50 [14]: 7.82 µM
TGI [14]: 27.7 µM
GI50 [15]: 15.4 µM
TGI [15]: > 50 µM
GI50 [16]: 1.04 µM
TGI [16]: 4.84 µM
GI50 [17]: 9.75 µM
TGI [17]: 49.9 µM
GI50 [18]: 14.1 µM
TGI [18]: > 50 µM
GI50 [19]: 9.7 µM
TGI [19]: > 50 µM
GI50 [20]: 3.05 µM
TGI [20]: > 50 µM
GI50 [21]: 12 µM
TGI [21]: > 50 µM
GI50 [22]: 15.6 µM
TGI [22]: > 50 µM
GI50 [23]: 11.5 µM
TGI [23]: > 50 µM
GI50 [24]: 10.8 µM
TGI [24]: 33.9 µM
GI50 [25]: 11.8 µM
TGI [25]: > 50 µM
GI50 [26]: 8.26 µM
TGI [26]: 22 µM
GI50 [27]: 11.8 µM
TGI [27]: > 50 µM
GI50 [28]: 10.3 µM
TGI [28]: > 50 µM
GI50 [29]: 16.4 µM
TGI [29]: > 50 µM
GI50 [30]: 6.84 µM
TGI [30]: > 50 µM
GI50 [31]: 8.03 µM
TGI [31]: > 50 µM
GI50 [32]: 7.02 µM
TGI [32]: 28.2 µM
GI50 [33]: 9.25 µM
TGI [33]: > 50 µM
GI50 [34]: 4.33 µM
TGI [34]: > 50 µM
GI50 [35]: 9.98 µM
TGI [35]: 35.6 µM
GI50 [36]: 8.98 µM
TGI [36]: > 50 µM
GI50 [37]: 5.71 µM
TGI [37]: 39.8 µM
GI50 [38]: 2.68 µM
TGI [38]: 16.6 µM
GI50 [39]: 15.8 µM
TGI [39]: > 50 µM
GI50 [40]: 12.5 µM
TGI [40]: > 50 µM
GI50 [41]: 10 µM
TGI [41]: 43.5 µM
GI50 [42]: 5.82 µM
TGI [42]: 22.5 µM
GI50 [43]: 6.18 µM
TGI [43]: 28.7 µM
GI50 [44]: 2.94 µM
TGI [44]: > 50 µM
GI50 [45]: 3.38 µM
TGI [45]: 12.3 µM
GI50 [46]: 10.3 µM
TGI [46]: 35.1 µM
GI50 [47]: 6.07 µM
TGI [47]: > 50 µM
GI50 [48]: 10.3 µM
TGI [48]: > 50 µM
GI50 [49]: 9.27 µM
TGI [49]: 41.9 µM
GI50 [50]: 12.8 µM
TGI [50]: > 50 µM
GI50 [51]: 14.5 µM
TGI [51]: > 50 µM
GI50 [52]: 11.3 µM
TGI [52]: 42.1 µM
GI50 [53]: 9.98 µM
TGI [53]: > 50 µM
GI50 [54]: 9.59 µM
TGI [54]: > 50 µM
GI50 [55]: 6.52 µM
TGI [55]: 30.2 µM
GI50 [56]: 2.2 µM
TGI [56]: 13.5 µM
GI50 [57]: 8.85 µM
TGI [57]: > 50 µM
